For 19 molecules, EC50 results are on record in US12577206B2 (BRISTOL-MYERS SQUIBB COMPANY, priority 2020, dated 2026).

A value given as a limit tells only on which side of the number the result lay.

One experiment concerns the target T1, human FPR2 (Homo sapiens, UniProt P25090).
T1 sequence (P25090 1-351): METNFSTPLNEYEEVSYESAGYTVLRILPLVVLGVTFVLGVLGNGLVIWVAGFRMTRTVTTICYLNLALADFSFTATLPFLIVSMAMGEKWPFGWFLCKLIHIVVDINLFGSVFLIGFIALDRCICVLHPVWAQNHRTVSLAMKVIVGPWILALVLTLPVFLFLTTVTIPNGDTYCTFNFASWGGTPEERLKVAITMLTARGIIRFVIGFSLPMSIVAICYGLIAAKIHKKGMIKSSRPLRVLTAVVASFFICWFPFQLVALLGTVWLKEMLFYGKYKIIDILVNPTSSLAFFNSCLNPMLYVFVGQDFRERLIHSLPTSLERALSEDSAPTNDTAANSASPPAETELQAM
The experiment can be described thus: FPR2 cyclic adenosine monophosphate (cAMP) assay. It counts as cell-based. The following applies: CHO cells overexpressing human FPR2; forskolin 5 μM; inhibition of cAMP production; HTRF; read-out: hFPR2 cAMP2 EC50. The source says: (§1) N-formyl peptide receptors (FPRs) are a family of chemo attractant receptors that facilitate leukocyte response during inflammation. FPRs belong to the seven-transmembrane G protein-coupled receptor superfamily and are linked to inhibitory G-proteins (Gi). Three family members (FPR1, FPR2 and FPR3) have been identified in humans and are predominantly found in myeloid cells with varied distribution and have also been reported in multiple organs and tissues. After agonist binding, the FPRs activate a multitude of physiological pathways, such as intra cellular signaling transduction, Ca^2+ mobilization and transcription. The family interacts with a diverse set of ligands that includes proteins, polypeptides and fatty acid metabolites which activate both pro-inflammatory and pro-resolution downstream responses. FPR2 and FPR1 Cyclic Adenosine Monophosphate (cAMP) Assays were used to measure the in vitro activity of the compounds disclosed in this application.
(§2) FPR2 and FPR1 Cyclic Adenosine Monophosphate (cAMP) Assays. A mixture of forskolin (5 μM final for FPR2 or 10 μM final for FPR1) and IBMX (200 μM final) were added to 384-well Proxiplates (Perkin-Elmer) pre-dotted with test compounds in DMSO (1% final) at final concentrations in the range of 0.020 nM to 100 μM. Chinese Hamster Ovary cells (CHO) overexpressing human FPR1 or human FPR2 receptors were cultured in F-12 (Ham's) medium supplemented with 10% qualified FBS, 250 μg/mL zeocin and 300 μg/mL hygromycin (Life Technologies). Reactions were initiated by adding 2,000 human FPR2 cells per well or 4,000 human FPR1 cells per well in Dulbecco's PBS (with calcium and magnesium) (Life Technologies) supplemented with 0.1% BSA (Perkin-Elmer). The reaction mixtures were incubated for 30 min at rt. The level of intracellular cAMP was determined using the HTRF HiRange cAMP assay reagent kit (Cisbio) according to manufacturer's instruction. Solutions of cryptate conjugated anti-cAMP and d2 flurorophore-labeled cAMP were made in a supplied lysis buffer separately. Upon completion of the reaction, the cells were lysed with equal volume of the d2-cAMP solution and anti-cAMP solution. […] The potency and activity of a compound to inhibit cAMP production was then determined by fitting to a 4-parametric logistic equation from a plot of cAMP level versus compound concentrations.

A further experiment concerns the target T2, human FPR1 (Homo sapiens, UniProt P21462).
T2 sequence (P21462 1-350): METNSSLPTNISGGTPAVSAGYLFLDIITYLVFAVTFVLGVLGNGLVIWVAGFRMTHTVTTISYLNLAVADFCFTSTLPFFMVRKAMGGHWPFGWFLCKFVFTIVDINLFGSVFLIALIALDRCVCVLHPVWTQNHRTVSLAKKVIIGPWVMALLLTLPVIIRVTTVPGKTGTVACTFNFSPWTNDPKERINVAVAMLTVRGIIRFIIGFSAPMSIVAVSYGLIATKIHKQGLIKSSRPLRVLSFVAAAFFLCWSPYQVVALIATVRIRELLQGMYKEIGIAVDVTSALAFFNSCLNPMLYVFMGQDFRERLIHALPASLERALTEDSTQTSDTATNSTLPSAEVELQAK
The experiment can be described thus: FPR1 cyclic adenosine monophosphate (cAMP) assay. It counts as cell-based. Particulars: CHO cells overexpressing human FPR1; forskolin 10 μM; inhibition of cAMP production; HTRF; read-out: hFPR1 cAMP2 EC50.
Excerpt: as §1, §2
In general terms: Cyclic AMP is a second messenger, typically raised through Gs and lowered through Gi signalling.

Usually EC50 stands for the concentration giving half of the maximal effect. On to `COc1cc(F)c(-c2c(NC(=O)c3ccc(C4CC4)cc3)c(=O)n(-c3ccccc3)n2C)c(F)c1` [Example 16, 4-cyclopropyl-N-[5-(2,6-difluoro-4-methoxyphenyl)-1-methyl-3-oxo-2-phenyl-2,3-dihydro-1H-pyrazol-4-yl]benzamide], for which the EC50 at human FPR2 is 0.03 µM; at human FPR1, above 10 µM.

As for `COc1cc(F)c(-c2c(NC(=O)c3ccc(C(F)(F)F)cc3)c(=O)n(-c3ccc(F)cc3)n2C)c(F)c1` [Example 17, N-[5-(2,6-difluoro-4-methoxyphenyl)-2-(4-fluorophenyl)-1-methyl-3-oxo-2,3-dihydro-1H-pyrazol-4-yl]-4-(trifluoromethyl)benzamide], the values for the EC50 on human FPR2 and at human FPR1 were 0.051 µM and 1.7 µM, respectively.

Regarding `COc1cc(F)c(-c2c(NC(=O)c3ccc(OC(F)F)cc3)c(=O)n(C(C)C)n2C)c(F)c1` [Example 18, N-[5-(2,6-difluoro-4-methoxyphenyl)-1-methyl-3-oxo-2-(propan-2-yl)-2,3-dihydro-1H-pyrazol-4-yl]-4-(difluoromethoxy)benzamide], the half-maximal effective concentration (EC50) worked out at 0.053 µM at human FPR2 and 4.1 µM at human FPR1.

With `CCOC(=O)Cn1c(=O)c(NC(=O)c2ccc(OC(F)F)cc2)c(-c2c(F)cc(OC)cc2F)n1C` [Example 21, ethyl 2-[3-(2,6-difluoro-4-methoxyphenyl)-4-[4-(difluoromethoxy)benzamido]-2-methyl-5-oxo-2,5-dihydro-1H-pyrazol-1-yl]acetate], the EC50 on human FPR2 is 0.14 µM; at human FPR1 it was above 10 µM.

In the case of `COc1cc(F)c(-c2c(NC(=O)c3ccc(-n4cccn4)cc3)c(=O)n(-c3ccccc3)n2C)c(F)c1` [Example 23, N-[5-(2,6-difluoro-4-methoxyphenyl)-1-methyl-3-oxo-2-phenyl-2,3-dihydro-1H-pyrazol-4-yl]-4-(1H-pyrazol-1-yl)benzamide], the EC50 on human FPR2 is 0.15 µM; on human FPR1, 3 µM.

Turning to `COc1cc(F)c(-c2c(NC(=O)c3ccc(OC(F)(F)F)cn3)c(=O)n(-c3ccccc3)n2C)c(F)c1` [Example 24, N-[5-(2,6-difluoro-4-methoxyphenyl)-1-methyl-3-oxo-2-phenyl-2,3-dihydro-1H-pyrazol-4-yl]-5-(trifluoromethoxy)pyridine-2-carboxamide], the EC50 is 0.22 µM at human FPR2 and above 10 µM at human FPR1.

Regarding `COc1cc(F)c(-c2c(NC(=O)c3ccc(Cl)nc3)c(=O)n(-c3ccccc3)n2C)c(F)c1` [Example 25, 6-chloro-N-[5-(2,6-difluoro-4-methoxyphenyl)-1-methyl-3-oxo-2-phenyl-2,3-dihydro-1H-pyrazol-4-yl]pyridin-3-carboxamide], the figures for the EC50 at human FPR2 and at human FPR1 were 0.28 µM and above 10 µM, respectively.

For `COc1cc(F)c(-c2c(NC(=O)c3ccc(OC(F)(F)F)cc3)c(=O)n(-c3c(F)cccc3F)n2C)c(F)c1` [Example 26, N-[5-(2,6-difluoro-4-methoxyphenyl)-2-(2,6-difluorophenyl)-1-methyl-3-oxo-2,3-dihydro-1H-pyrazol-4-yl]-4-(trifluoromethoxy)benzamide], the 50% effective concentration (EC50) on human FPR2 amounted to 0.009 µM; at human FPR1 it was 1.1 µM.

In the case of `COc1cc(F)c(-c2c(NC(=O)c3ccc(OC(F)F)cc3)c(=O)n(-c3c(F)cccc3F)n2C)c(F)c1` [Example 27, N-[5-(2,6-difluoro-4-methoxyphenyl)-2-(2,6-difluorophenyl)-1-methyl-3-oxo-2,3-dihydro-1H-pyrazol-4-yl]-4-(difluoromethoxy)benzamide], the concentration for a half-maximal effect (EC50) is 0.01 µM on human FPR2 and above 10 µM on human FPR1.

Regarding `COc1cc(F)c(-c2c(NC(=O)c3ccc(OC(F)(F)F)cc3)c(=O)n(-c3ccccc3F)n2C)c(F)c1` [Example 28, N-[5-(2,6-difluoro-4-methoxyphenyl)-2-(2-fluorophenyl)-1-methyl-3-oxo-2,3-dihydro-1H-pyrazol-4-yl]-4-(trifluoromethoxy)benzamide], the EC50 came to 0.01 µM at human FPR2 and 2.5 µM at human FPR1.

Turning to `COc1cc(F)c(-c2c(NC(=O)c3ccc(Cl)cc3)c(=O)n(-c3ccccc3F)n2C)c(F)c1` [Example 30, 4-chloro-4-N-[5-(2,6-difluoro-4-methoxyphenyl)-2-(2-fluorophenyl)-1-methyl-3-oxo-2,3-dihydro-1H-pyrazol-4-yl]benzamide], the EC50 at human FPR2 was 0.018 µM; on human FPR1 it was above 10 µM.

Turning to `COc1cc(F)c(-c2c(NC(=O)c3ccc(OC(F)(F)F)cc3)c(=O)n(-c3ncccc3F)n2C)c(F)c1` [Example 32, N-[5-(2,6-difluoro-4-methoxyphenyl)-2-(3-fluoropyridin-2-yl)-1-methyl-3-oxo-2,3-dihydro-1H-pyrazol-4-yl]-4-(trifluoromethoxy)benzamide], the EC50 was found to be 0.008 µM at human FPR2 and 6.5 µM on human FPR1.

Take `COc1cc(F)c(-c2c(NC(=O)c3ccc(OC(F)F)cc3)c(=O)n(-c3cccc(Cl)c3Cl)n2C)c(F)c1` [Example 34, N-[2-(2,3-dichlorophenyl)-5-(2,6-difluoro-4-methoxyphenyl)-1-methyl-3-oxo-2,3-dihydro-1H-pyrazol-4-yl]-4-(difluoromethoxy)benzamide]: the results for the EC50 at human FPR2 and at human FPR1 were 0.004 µM and 1.9 µM, respectively.

Turning to `COc1cc(F)c(-c2c(NC(=O)c3ccc(OC(F)(F)F)cc3)c(=O)n(-c3cccc(Cl)c3Cl)n2C)c(F)c1` [Example 35, N-[2-(2,3-dichlorophenyl)-5-(2,6-difluoro-4-methoxyphenyl)-1-methyl-3-oxo-2,3-dihydro-1H-pyrazol-4-yl]-4-(trifluoromethoxy)benzamide], the figures for the EC50 at human FPR2 and on human FPR1 were 0.006 µM and 1.7 µM, respectively.

In the case of `COc1cc(F)c(-c2c(NC(=O)c3ccc(Cl)cc3)c(=O)n(-c3ccc(Cl)cc3)n2C)c(F)c1` [Example 36, 4-chloro-N-[2-(4-chlorophenyl)-5-(2,6-difluoro-4-methoxyphenyl)-1-methyl-3-oxo-2,3-dihydro-1H-pyrazol-4-yl]benzamide], the values for the 50% effective concentration (EC50) on human FPR2 and on human FPR1 were 0.009 µM and 0.27 µM, respectively.

Turning to `COc1cc(F)c(-c2c(NC(=O)c3ccc(OC(F)F)cc3)c(=O)n(-c3cccc(Cl)c3C)n2C)c(F)c1` [Example 37, N-[2-(3-chloro-2-methylphenyl)-5-(2,6-difluoro-4-methoxyphenyl)-1-methyl-3-oxo-2,3-dihydro-1H-pyrazol-4-yl]-4-(difluoromethoxy)benzamide], the values for the EC50 on human FPR2 and at human FPR1 were 0.019 µM and above 10 µM, respectively.

For the molecule `COc1cc(F)c(-c2c(NC(=O)c3ccc(OC(F)F)cc3)c(=O)n(-c3cccc(Cl)n3)n2C)c(F)c1` [Example 39, N-[2-(6-chloropyridin-2-yl)-5-(2,6-difluoro-4-methoxyphenyl)-1-methyl-3-oxo-2,3-dihydro-1H-pyrazol-4-yl]-4-(difluoromethoxy)benzamide], the EC50 at human FPR2 turned out to be 0.014 µM; at human FPR1, 3 µM.

With `COc1cc(F)c(-c2c(NC(=O)c3ccc(OC(F)(F)F)cc3)c(=O)n(-c3ncccc3Cl)n2C)c(F)c1` [Example 41, N-[2-(3-chloropyridin-2-yl)-5-(2,6-difluoro-4-methoxyphenyl)-1-methyl-3-oxo-2,3-dihydro-1H-pyrazol-4-yl]-4-(trifluoromethoxy)benzamide], the EC50 on human FPR2 was 0.007 µM; on human FPR1 it was 2.1 µM.

For `COc1cc(F)c(-c2c(NC(=O)c3ccc(Cl)cc3)c(=O)n(-c3ccc(Cl)cn3)n2C)c(F)c1` [Example 43, 4-chloro-N-[2-(5-chloropyridin-2-yl)-5-(2,6-difluoro-4-methoxyphenyl)-1-methyl-3-oxo-2,3-dihydro-1H-pyrazol-4-yl]benzamide], the EC50 on human FPR2 was 0.041 µM; on human FPR1, above 10 µM.
